Data: PMC7281206, “Cysteine Cathepsins Inhibition Affects Their Expression and Human Renal Cancer Cell Phenotype” (Cancers, 2020)
*: point of attachment. CH2F = FC*

What was measured:
Assay type in all cases: cell-based, human
[1] = test system: E-cadherin in 769-P cells; experiment: E-cadherin protein expression (western blot), 769-P
Procedure: These properties could be the result of the modulation of the effectors controlling EMT, as previously shown in other tumor models. To test this hypothesis, the cells were treated with the inhibitors for 24, 48, and 72 h by changing the media every day, and they were tested for E-cadherin and SNAIL1 expression (Figure 6; detail information of western blots can be seen in Supplementary Figure S7).  Figure 6 Effects of the peptides on E-cadherin and SNAIL1 protein expression: (a,b) protein expression of E-cadherin and SNAIL1 in 769-P and (c,d) A498 cells after 24, 48, and 72 h of treatment with the peptides. Data are represented as mean ± SD of at least three replicates. Significance was calculated through one-way ANOVA, followed by Dunnet’s test. Cells were seeded in RPMI containing 10% FBS and cultured for 24 h. Next, 30 µM of inhibitors were added to the culture medium and incubated for 24, 48, and 72 h. Control cells were treated with 0.01% DMSO. At all time points the samples were lysed in 50 mM Tri-HCl (pH 8.0), 100 mM NaCl, 0.5% NP-40, 1% Triton X-100, 1× protease inhibitor cocktail (ThermoFisher, Waltham, MA, USA). The 50 µg of protein lysates were separated by electrophoresis on a 12% SDS-PAGE gel and transferred to the PFDF membranes. The expression of cysteine Cts, LAMP-1, E-cadherin, and SNAIL1 were identified by a reaction with specific primary antibodies (CtsB-Ab190077, Abcam, UK; CtsL-Ab95154, Abcam, UK; CtsW Ab191083; LAMP-1- Ab24170, Abcam, UK; SNAIL1 Ab216347, Abcam, UK and e-cadherin-612131, BD Sciences Franklin Lakes, NJ, USA) which were resuspended in 5% non-fat milk in PBST (all Cts 1:3000, LAMP-1, SNAIL1 and E-cadherin 1:1000) and incubated O/N. The next day, the membranes were washed three times with PBST and incubated for 1 h with secondary antibodies (P-GAR Iss (Goat pAb to rabbit IgG (HRP), Abcam, UK or Rabbit Ab to mouse, Abcam, UK; both 1:5000) in 5% non-fat milk in PBST. After an additional wash (three times with PBS), reactive bands were detected by chemiluminescence (Bio-Rad, Irvine, CA, USA). As a loading control, the membranes were incubated with a polyclonal anti-tubulin antibody (1:5000; Ab52866, Abcam, UK) identically.

SNAIL1 in A498 cells = experiment: SNAIL1 protein expression (western blot), A498; conditions: 72 h
Procedure: These properties could be the result of the modulation of the effectors controlling EMT, as previously shown in other tumor models. To test this hypothesis, the cells were treated with the inhibitors for 24, 48, and 72 h by changing the media every day, and they were tested for E-cadherin and SNAIL1 expression (Figure 6; detail information of western blots can be seen in Supplementary Figure S7). Figure 6 Effects of the peptides on E-cadherin and SNAIL1 protein expression: (a,b) protein expression of E-cadherin and SNAIL1 in 769-P and (c,d) A498 cells after 24, 48, and 72 h of treatment with the peptides. Data are represented as mean ± SD of at least three replicates. Significance was calculated through one-way ANOVA, followed by Dunnet’s test. Cells were seeded in RPMI containing 10% FBS and cultured for 24 h. Next, 30 µM of inhibitors were added to the culture medium and incubated for 24, 48, and 72 h. Control cells were treated with 0.01% DMSO. At all time points the samples were lysed in 50 mM Tri-HCl (pH 8.0), 100 mM NaCl, 0.5% NP-40, 1% Triton X-100, 1× protease inhibitor cocktail (ThermoFisher, Waltham, MA, USA). The 50 µg of protein lysates were separated by electrophoresis on a 12% SDS-PAGE gel and transferred to the PFDF membranes. […] After an additional wash (three times with PBS), reactive bands were detected by chemiluminescence (Bio-Rad, Irvine, CA, USA). […]

LAMP-1 in 769-P cells = experiment: LAMP-1 expression (confocal microscopy), 769-P; conditions: 20 μM
Procedure: Figure 7 Effect of the peptides on LAMP-1 protein expression: (a) Western blotting analysis of LAMP-1 after treatment with PLVE and VLPE (20 μM) for 24, 48, and 72 h in 769-P cells. (b) Confocal microscopy evaluation of LAMP-1 expression after 48 and 72 h of treatment with PLVE and VLPE (20 μM) in 769-P cells. (c) Western blotting analysis of LAMP-1 after treatment with PLVE and VLPE (20 μM) for 24, 48, and 72 h in A498 cells. (d) Confocal microscopy evaluation of LAMP-1 expression after 48 and 72 h of treatment with PLVE and VLPE (20 μM) in A498 cells. Data are represented as mean ± SD of at least three replicates. Significance was calculated through one-way ANOVA followed by Dunnet’s test. * = p < 0.05, ** = p < 0.01, *** = p < 0.001. The cells were treated for 48 and 72 h, then were fixed in 4% PFA/PBS for 15 min and permeabilized in 0.25% Triton®X-100 for 10 min. After blocking the non-specific sites in 2% BSA/PBS-T, the immunofluorescence was performed overnight with primary antibody anti-LAMP-1 (1:100, Abcam, Eugene, OR, USA) incubation, followed by incubation with the appropriate fluorophore-labeled secondary antibody Donkey anti-Rabbit IgG (H+L) ReadyProbes™, Alexa Fluor 488 (1:500; ThermoFisher, USA). The cells were then counterstained with nuclear dye DAPI and visualized under a fluorescent and/or confocal microscope (Olympus BX51, Shinjuku, Tokyo, Japan, and AxioObserver Z1, Zeiss, Oberkochen, Germany) using oil-immersion lenses.

[2] = test system: 769-P cells (endolysosomal compartment); experiment: Neutral red assay (endolysosomal integrity), 769-P; conditions: 2.5–250 μM; 48 h
Procedure: Figure S6. The effect of the peptide inhibitors on human 769‐P and A498 renal cancer cell on
lysosomes integrity. (a) 769‐P and (b) A498 cells were treated with increasing doses of Ac‐PLVE‐FMK
(red bars) and Ac‐VLPE‐FMK (blue bars) (2.5–250 μM). NR uptake was measured after 24, 48, and 72
h via MTT assay. (c) LysoTracker red evaluation in 769‐P and (d) A498 cells after 24, 48, and 72 h with
the inhibitors (20 μM). Data represent the mean (± S.D.) of at least three independent experiments,
each performed in triplicate.

Substance	E-cadherin protein expression ([1]; 72 h)	E-cadherin protein expression ([1]; first 48 h)	SNAIL1 protein expression (SNAIL1 in A498 cells)	LAMP-1 expression (confocal) (LAMP-1 in 769-P cells; 48 h)	LAMP-1 expression (confocal) (LAMP-1 in 769-P cells; 72 h)	Neutral red uptake [2]
Ac-VLPE-CH2F [Ac-VLPE-FMK]	further increased in 769P cells	increased the protein expression of E-cadherin in the first 48 h in both the cell lines	dropped to values more similar to the control	increased LAMP-1 expression	the content of LAMP-1 decreased towards control levels	slightly increasing
Ac-PLVE-CH2F [Ac-PLVE-FMK]	further increased in 769P cells	increased the protein expression of E-cadherin in the first 48 h in both the cell lines	dropped to values more similar to the control	increased LAMP-1 expression	the content of LAMP-1 decreased towards control levels	slightly increasing
